In patent US20240124432A1, “HERBICIDAL COMPOUNDS” (SYNGENTA CROP PROTECTION AG, priority 2020, published 2024):

Experiments:
Assay type in all cases: in vivo
SETFA [1] = test: Pre-emergence biological efficacy; details: Setaria faberi, 312 h, evaluated after 13 days, read-out: damage to plant (100=total damage to plant; 0=no damage to plant)
Method: (§1) Seeds of weeds and/or crops were sown in standard soil in pots. After cultivation for one day under controlled conditions in a glasshouse (at 24/19° C., day/night; 16 hours light), the plants were sprayed with an aqueous spray solution derived from the formulation of the technical active ingredient in a small amount of acetone and a special solvent and emulsifier mixture referred to as IF50 (11.12% Emulsogen EL360 TM+44.44% N-methylpyrrolidone+44.44% Dowanol DPM glycol ether), to create a 50g/l solution which was then diluted using 0.2% Genapol XO80 as diluent to give the desired final dose of test compound.
(§2) The test plants were then grown under controlled conditions in the glasshouse (at 24/18° C., day/night; 15 hours light; 50% humidity) and watered twice daily. After 13 days the test was evaluated (100=total damage to plant; 0=no damage to plant).

EPHHL [2] = test: Pre-emergence biological efficacy; details: Euphorbia heterophylla, 312 h, evaluated after 13 days, read-out: damage to plant (100=total damage to plant; 0=no damage to plant)
Method: as §1, §2

IPOHE [3] = test: Pre-emergence biological efficacy; details: Ipomoea hederacea, 312 h, evaluated after 13 days, read-out: damage to plant (100=total damage to plant; 0=no damage to plant)
Method: as §1, §2

ECHCG [4] = test: Pre-emergence biological efficacy; details: Echinochloa crus-galli, 312 h, evaluated after 13 days, read-out: damage to plant (100=total damage to plant; 0=no damage to plant)
Method: as §1, §2

AMAPA [5] = test: Pre-emergence biological efficacy; details: Amaranthus palmeri, 312 h, evaluated after 13 days, read-out: damage to plant (100=total damage to plant; 0=no damage to plant)
Method: as §1, §2

LOLPE [6] = test: Pre-emergence biological efficacy; details: Lolium perenne, 312 h, evaluated after 13 days, read-out: damage to plant (100=total damage to plant; 0=no damage to plant)
Method: as §1, §2

SETFA [7] = test: Post-emergence biological efficacy; details: Setaria faberi, 312 h, evaluated after 13 days, read-out: damage to plant (100=total damage to plant; 0=no damage to plant)
Method: as §1, with “14 days” for “one day”
(§3) The test plants were then grown under controlled conditions in the glasshouse (at 24/18° C., day/night; 15 hours light; 50% humidity)and watered twice daily. After 13 days the test was evaluated (100=total damage to plant; 0=no damage to plant).

EPHHL [8] = test: Post-emergence biological efficacy; details: Euphorbia heterophylla, 312 h, evaluated after 13 days, read-out: damage to plant (100=total damage to plant; 0=no damage to plant)
Method: as §1, with “14 days” for “one day”
as §3

IPOHE [9] = test: Post-emergence biological efficacy; details: Ipomoea hederacea, 312 h, evaluated after 13 days, read-out: damage to plant (100=total damage to plant; 0=no damage to plant)
Method: as §1, with “14 days” for “one day”
as §3

ELEIN = test: Post-emergence biological efficacy; details: 312 h, evaluated after 13 days, read-out: damage to plant (100=total damage to plant; 0=no damage to plant)
Method: as §1, with “14 days” for “one day”
as §3

DIGSA = test: Post-emergence biological efficacy; details: Digitaria sanguinalis, 312 h, evaluated after 13 days, read-out: damage to plant (100=total damage to plant; 0=no damage to plant)
Method: as §1, with “14 days” for “one day”
as §3

ECHCG [10] = test: Post-emergence biological efficacy; details: Echinochloa crus-galli, 312 h, evaluated after 13 days, read-out: damage to plant (100=total damage to plant; 0=no damage to plant)
Method: as §1, with “14 days” for “one day”
as §3

CHEAL = test: Post-emergence biological efficacy; details: Chenopodium album, 312 h, evaluated after 13 days, read-out: damage to plant (100=total damage to plant; 0=no damage to plant)
Method: as §1, with “14 days” for “one day”
as §3

AMAPA [11] = test: Post-emergence biological efficacy; details: Amaranthus palmeri, 312 h, evaluated after 13 days, read-out: damage to plant (100=total damage to plant; 0=no damage to plant)
Method: as §1, with “14 days” for “one day”
as §3

LOLPE [12] = test: Post-emergence biological efficacy; details: Lolium perenne, 312 h, evaluated after 13 days, read-out: damage to plant (100=total damage to plant; 0=no damage to plant)
Method: as §1, with “14 days” for “one day”
as §3

Row | SMILES | pest or weed control at 250 g/ha (SETFA [1]) [%] | pest or weed control at 250 g/ha (EPHHL [2]) [%] | pest or weed control at 250 g/ha (IPOHE [3]) [%] | pest or weed control at 250 g/ha (ECHCG [4]) [%] | pest or weed control at 250 g/ha (AMAPA [5]) [%] | pest or weed control at 250 g/ha (LOLPE [6]) [%] | pest or weed control at 250 g/ha (SETFA [7]) [%] | pest or weed control at 250 g/ha (EPHHL [8]) [%] | pest or weed control at 250 g/ha (IPOHE [9]) [%] | pest or weed control at 250 g/ha (ELEIN) [%] | pest or weed control at 250 g/ha (DIGSA) [%] | pest or weed control at 250 g/ha (ECHCG [10]) [%] | pest or weed control at 250 g/ha (CHEAL) [%] | pest or weed control at 250 g/ha (AMAPA [11]) [%] | pest or weed control at 250 g/ha (LOLPE [12]) [%]
1 | CCOC(=O)C1(C)CC(c2cc(-c3ncc(C(F)(F)F)cc3Cl)c(F)cc2Cl)=NO1 (stereo not drawn) [Compound 1-103, Ethyl 3-[2-chloro-5-(3-chloro-5-trifluoromethyl-2-pyridyl)-4-fluoro-phenyl]-5-methyl-4H-isoxazole-5-carboxylate] | 80 | 100 | 100 | 90 | 100 | 80 | 100 | 100 | 100 | 100 | 100 | 100 | 100 | 100 | 100
2 | CCOC(=O)C1(C)CC(c2cc(-c3ncc(Cl)cc3Cl)c(F)cc2Cl)=NO1 (stereo not drawn) [Compound 1-115, Ethyl 3-[2-chloro-5-(3,5-dichloro-2-pyridyl)-4-fluoro-phenyl]-5-methyl-4H-isoxazole-5-carboxylate] | 60 | 100 | 80 | 80 | 100 | 50 | 100 | 100 | 100 | 100 | 100 | 100 | 100 | 100 | 100
3 | CCOC(=O)C1(C)CC(c2cc(-c3ncccc3Cl)c(F)cc2Cl)=NO1 (stereo not drawn) [Compound 1-127, Ethyl 3-[2-chloro-5-(3-chloro-2-pyridyl)-4-fluoro-phenyl]-5-methyl-4H-isoxazole-5-carboxylate] | 70 | 100 | 50 | 50 | 40 | 20 | 100 | 80 | 100 | 30 | 50 | 90 | 100 | 100 | 10
4 | CCOC(=O)C1(C)CC(c2cc(-c3ccccn3)c(F)cc2Cl)=NO1 (stereo not drawn) [Compound 1-139, Ethyl 3-[2-chloro-4-fluoro-5-(2-pyridyl)phenyl]-5-methyl-4H-isoxazole-5-carboxylate] | 0 | 0 | 0 | 0 | 0 | 0 | 10 | 10 | 20 | 0 | 0 | 0 | 0 | 0 | 0
5 | CCOC(=O)C1(C)CC(c2cc(-c3ncc(C)cc3Cl)c(F)cc2Cl)=NO1 (stereo not drawn) [Compound 1-175, Ethyl 3-[2-chloro-5-(3-chloro-5-methyl-2-pyridyl)-4-fluoro-phenyl]-5-methyl-4H-isoxazole-5-carboxylate] | 80 | 60 | 50 | 60 | 30 | 20 | 100 | 100 | 100 | 70 | 70 | 100 | 100 | 100 | 90
